From US20100016307A1, “NOVEL COMPOUNDS” (priority 2006, published 2010) come the findings set out here.

Molecules are shown by their SMILES.

The target in assay [1] is T1, human Met Kinase (His6-GST fusion, aa 956-1390) (Homo sapiens, UniProt P08581).
T1 construct: His6 (N); GST (Glutathione-S-Transferase) (N); made in house; host or cells: baculovirus expression system in Sf9 cells
Briefly: In vitro screen: kinase assay of purified Met kinase. In kind it is biochemical. Conditions: purified Met 1 nM, 10 μM ATP, 1 μM peptide substrate, 1 hour at room temperature; read-out: pIC50 values at the c-Met receptor (in vitro screen results) (converted). On the procedure:
The peptide substrate, Biotin-aminohexyl-EEEEYFELVAKKKK-amide was purchased from SynPep Solid sample is dissolved at approximately 2.5 mM in water (concentration determined by amino acid analysis) and aliquots stored at −20° C.
Met Kinase: A fusion protein consisting of His6-tagged Glutathione-S-Transferase (GST) and amino acid residues 956-1390 of human Met Kinase (aa 956-1390 of Entrez Protein Accession # EAL24359.1 (met proto-oncogene (hepatocyte growth factor receptor) [Homo sapiens])) from “www.ncbi.nlm.nih.gov/entrez/”) is purified from baculovirus expression system in Sf9 cells using Ni chelate column, GSH column, followed by size exclusion chromatography. Purity greater than 90%, estimated by SDS-PAGE, is achieved. Samples in 25 mM HEPES pH 7.5, 100 mM NaCl, 0.1 mM EDTA are stored at −80° C. until use.
Assays are performed in 96 well (Costar, Catalog No. 3789) or 384 well plates (Costar, Catalog No. 3705). Assay conditions for the peptide phosphorylation reaction (in 10, 20, 25, or 40 μl volume) mix are 100 mM Hepes buffer, pH 7.4; 0.1 mgml^−1 BSA; 5 mM MgCl2; 1 mM DTT; 10 μM ATP; purified Met (1 nM final); and 1 μM peptide substrate. Compounds, titrated in DMSO, are evaluated at concentrations ranging from 50 μM to 0.2 nM. […] Reactions are incubated for 1 hour at room temperature and are stopped by addition of detection reagents containing, at final detection volume, 12.5 mM EDTA; 100 mM Hepes; 0.1 mg/ml BSA; 8 nM Streptavidin APC (Perkin Elmer catalog #CR130-150); 1 nM Europium-labelled anti-phosphotyrosine antibody (Perkin Elmer catalog #AD0067). Under the assay conditions defined above, the Km (apparent) for ATP is determined to be 40 μM.
The data for compound dose responses were plotted as % Inhibition, calculated with the data reduction formula 100*(1−[(U1−C2)/(C1−C2)]), versus concentration of compound, where U is the unknown value, C1 is the average control value obtained for DMSO, and C2 is the average control value obtained for 0.05M EDTA. Data were fitted to the curve described by: y=((Vmax*x)/(K+x)) where Vmax is the upper asymptote and K is the IC50. The results for each compound were recorded as pIC50 calculated as follows: pIC50=−Log 10(K).

For assay [2], the target named is T2, c-Met/cFms chimeric receptor in c-Met/cFms/NIH3T3 cells (Homo sapiens, UniProt P08581).
T2 construct: The transmembrane/cytoplasmic domain fragment of c-Met (nucleotides 933 to 1390); expressed in transfected cells; the other entry of the earlier key: CSF1R (P07333, Macrophage colony-stimulating factor 1 receptor)
Nature of the assay: Cell-based assay for c-Met autophosphorylation (ELISA). The settings on record: compounds 1 h at 37° C., M-CSF (600 ng/ml) stimulation 10 min. The text has this: To generate a chimeric cDNA clone of c-Met with cFms, the extracellular domain of colony stimulating factor 1 receptor (CSF1R encoded by cFms gene) was fused with the transmembrane and cytoplasmic domain of c-Met. Reverse-transcribed RNA from human placenta was used as template to clone c-Met. The transmembrane/cytoplasmic domain fragment of c-Met (nucleotides 933 to 1390) containing a NotI site at both 5′- and 3′-end was generated by polymerase chain reaction (PCR) using following two oligonucleotides;
The resulting c-Met cDNA was cloned into pCR2.1-TOPO vector (c-Met/pCR2.1-TOPO). The extracellular domain fragment of cFms (nucleotides 1 to 512) containing BamHI site at 5′-end and NotI site at 3′-end was generated from human placenta cDNA by PCR using two oligonucleotides;
The resulting cFms cDNA was cloned into pcDNA3.1 vector (Invitrogen) using the BamHI and NotI sites (cFms/pcDNA3.1). To generate complete chimeric construct, the c-Met fragment (transmembrane and cytoplasmic domain) was digested with NotI sites (in c-Met/pCR2.1-TOPO vector) and then subcloned into cFms/pcDNA3.1 vector by NotI site (c-Met/cFms/pcDNA3.1).
NIH3T3 cells were grown in DMEM supplemented with 10% fetal bovine serum. NIH3T3 cells were transfected with c-Met/cFms/pcDNA3.1 vector alone using the calcium phosphate method according to the manufacturer's instructions. Three days after transfection, cells were selected with G418 (0.4 mgml^−1) for 14 days and the expression of c-Met chimeric receptor in the G418-resistant colonies of NIH3T3 (c-Met/cFms/NIH3T3) cells was analyzed by immunoblot. Autophosphorylation of c-Met induced by the stimulation with M-SCF, the ligand for CSF1R, was analyzed by immunoprecipitation and immunoblot, and prominent stable transfectant was selected for c-Met autophosphorylation assay. […]
c-Met/cFms/NIH3T3 cells were plated at 1×10^5 cells/well in collagen-coated 96-well microtitre plates and grown 24 h under standard culture conditions, followed by serum starvation for 1 h. The cells were incubated with compounds for 1 h at 37° C. and followed by M-CSF (600 ngml^−1) stimulation for 10 min at 37° C. The media was removed and the cells were lysed with 120 ul/well of lysis buffer (20 mM Tris-HCl pH8.0, 137 mM NaCl, 2 mM EDTA, 10% glycerol, 1% Triton X-100, 1 mM Na3VO4 and Protease Inhibitor Cocktail (Complete mini EDTA-free, Roche)). Then 100 ul/well of lysate was transferred to the antibody-coated (50 ng/well goat anti-cFms antibody in PBS) ELISA plate and incubated overnight at 4° C. Plates were washed five times with PBST (PBS containing 0.05% Tween-20). Primary antibody (biotin-conjugated anti-phosphotyrosine monoclonal antibody, PIERCE) was diluted 1:10,000 in PBST containing 1% BSA, added (100 ul/well) and incubated for 2 h at room temperature. After washing the plates five times with washing buffer, 100 ul/well of HRP-conjugated streptavidin (PIERCE) in PBST containing 1% BSA was added and incubated for 30 min at room temperature. After washing five times with PBST, 100 ul/well of SuperSignal ELISA Femto Substrate (PIERCE) was added and incubated for almost 1 min at room temperature. Chemiluminescence was measured using Wallac 1420 multilabel counter.
The IC50 was determined by using XLfit software (IDBS) with four-parameters, sigmoidal dose-response equation.

T2 sequence (P08581 with tags, fused parts or gaps): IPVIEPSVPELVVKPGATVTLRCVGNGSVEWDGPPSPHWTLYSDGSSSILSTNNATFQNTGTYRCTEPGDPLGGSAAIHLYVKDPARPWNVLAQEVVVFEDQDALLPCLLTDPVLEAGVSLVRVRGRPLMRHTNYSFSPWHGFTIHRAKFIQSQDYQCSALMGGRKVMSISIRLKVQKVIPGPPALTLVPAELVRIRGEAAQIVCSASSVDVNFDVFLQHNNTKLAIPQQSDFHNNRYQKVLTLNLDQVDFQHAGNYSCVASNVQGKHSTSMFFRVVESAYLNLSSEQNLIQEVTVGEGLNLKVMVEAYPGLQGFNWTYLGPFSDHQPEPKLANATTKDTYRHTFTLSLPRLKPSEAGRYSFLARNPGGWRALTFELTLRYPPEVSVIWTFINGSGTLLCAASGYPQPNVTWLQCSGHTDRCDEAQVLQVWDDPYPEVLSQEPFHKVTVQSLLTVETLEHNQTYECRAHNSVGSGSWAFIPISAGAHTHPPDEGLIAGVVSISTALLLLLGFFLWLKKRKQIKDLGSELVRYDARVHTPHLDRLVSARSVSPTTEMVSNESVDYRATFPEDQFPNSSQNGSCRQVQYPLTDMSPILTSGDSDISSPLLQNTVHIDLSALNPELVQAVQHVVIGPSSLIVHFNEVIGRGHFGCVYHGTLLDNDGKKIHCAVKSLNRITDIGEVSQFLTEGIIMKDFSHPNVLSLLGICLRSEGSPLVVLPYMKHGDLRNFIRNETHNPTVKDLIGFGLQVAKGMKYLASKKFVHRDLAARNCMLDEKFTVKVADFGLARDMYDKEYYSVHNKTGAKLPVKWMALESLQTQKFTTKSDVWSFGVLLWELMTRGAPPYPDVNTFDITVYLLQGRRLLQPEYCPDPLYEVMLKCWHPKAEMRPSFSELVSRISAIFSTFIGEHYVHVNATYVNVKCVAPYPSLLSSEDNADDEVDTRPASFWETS
T1 sequence (P08581 956-1390): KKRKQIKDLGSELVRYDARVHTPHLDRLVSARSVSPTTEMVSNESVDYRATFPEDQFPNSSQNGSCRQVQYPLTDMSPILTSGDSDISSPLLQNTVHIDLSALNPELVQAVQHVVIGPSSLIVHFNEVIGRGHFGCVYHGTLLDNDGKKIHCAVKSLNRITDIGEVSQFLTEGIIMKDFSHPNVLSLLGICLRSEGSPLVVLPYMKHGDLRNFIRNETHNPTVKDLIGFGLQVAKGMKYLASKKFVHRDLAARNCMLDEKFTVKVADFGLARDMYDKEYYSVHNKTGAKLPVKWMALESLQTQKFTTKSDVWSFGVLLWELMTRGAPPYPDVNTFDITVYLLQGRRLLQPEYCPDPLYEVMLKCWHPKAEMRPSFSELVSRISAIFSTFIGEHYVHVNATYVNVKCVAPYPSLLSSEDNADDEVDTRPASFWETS

For `CN(C)CCCNC(=O)c1cc2c(Oc3ccc(NC(=O)C4(C(=O)Nc5ccc(F)cc5)CC4)cc3)ccnc2[nH]1` [Example 5, N^1-(4-{[2-({[3-(Dimethylamino)propyl]amino}carbonyl)-1H-pyrrolo[2,3-b]pyridin-4-yl]oxy}phenyl)-N^1-(4-fluorophenyl)-1,1-cyclopropane dicarboxamide], the IC50 in assay [1] is < 10 nM. Compound `O=C(Nc1ccc(F)cc1)C1(C(=O)Nc2ccc(Nc3ccnc4[nH]c(-c5ccccc5)cc34)cc2)CC1` [Example 22, N^1-(4-Fluorophenyl)-N^1-{4-[(2-phenyl-1H-pyrrolo[2,3-b]pyridin-4-yl)amino]phenyl}-1,1-cyclopropanedicarboxamide] displayed an IC50 in assay [2] of 3.16 to 31.6 µM. On to `NC(=O)CNC(=O)c1cc2c(Oc3ccc(NC(=O)C4(C(=O)Nc5ccc(F)cc5)CC4)cc3)ccnc2[nH]1` [Example 8, N^1-{4-[(2-{[(2-Amino-2-oxoethyl)amino]carbonyl}-1H-pyrrolo[2,3-b]pyridin-4-yl)oxy]phenyl}-N^1-(4-fluorophenyl)-1,1-cyclopropanedicarboxamide], for which the IC50 in assay [1] is < 10 nM.

Compound `COc1ccccc1CNC(=O)c1cc2c(Oc3ccc(NC(=O)C4(C(=O)Nc5ccc(F)cc5)CC4)cc3)ccnc2[nH]1` [Example 12, N^1-(4-Fluorophenyl)-N^1-[4-({2-[({[2-(methyloxy)phenyl]methyl}amino)carbonyl]-1H-pyrrolo[2,3-b]pyridin-4-yl}oxy)phenyl]-1,1-cyclopropane dicarboxamide] returned an IC50 in assay [2] of 1 to 3.16 µM. As for `O=C(NCCc1c[nH]cn1)c1cc2c(Oc3ccc(NC(=O)C4(C(=O)Nc5ccc(F)cc5)CC4)cc3)ccnc2[nH]1` [Example 9], the IC50 in assay [1] was < 10 nM. In turn, `CS(=O)(=O)CCNC(=O)c1cc2c(Nc3ccc(NC(=O)C4(C(=O)Nc5ccc(F)cc5)CC4)cc3)ccnc2[nH]1` [Example 21, N^1-(4-Fluorophenyl)-N^1-(4-{[2-({[2-(methylsulfonyl)ethyl]amino}carbonyl)-1H-pyrrolo[2,3-b]pyridin-4-yl]amino}phenyl)-1,1-cyclopropane dicarboxamide] showed an IC50 in assay [2] of 3.16 to 31.6 µM. In the case of `O=C(Nc1ccc(F)cc1)C1(C(=O)Nc2ccc(Nc3ccnc4[nH]ccc34)cc2)CC1` [Example 15, N^1-(4-Fluorophenyl)-N^1-[4-(1H-pyrrolo[2,3-b]pyridin-4-ylamino)phenyl]-1,1-cyclopropanedicarboxamide], in assay [1], the IC50 is 100 to 1000 nM. `COc1ccccc1NC(=O)c1cc2c(Oc3ccc(NC(=O)C4(C(=O)Nc5ccc(F)cc5)CC4)cc3)ccnc2[nH]1` [Example 13, N^1-(4-Fluorophenyl)-N^1-(4-{[2-({[2-(methyloxy)phenyl]amino}carbonyl)-1H-pyrrolo[2,3-b]pyridin-4-yl]oxy}phenyl)-1,1-cyclopropane dicarboxamide]: the IC50 in assay [2] lay in the range of 3.16 to 31.6 µM. Take `O=C(NCCc1c[nH]cn1)c1cc2c(Nc3ccc(NC(=O)C4(C(=O)Nc5ccc(F)cc5)CC4)cc3)ccnc2[nH]1` [Example 20, N^1-(4-Fluorophenyl)-N^1-(4-{[2-({[2-(1H-imidazol-4-yl)ethyl]amino}carbonyl)-1H-pyrrolo[2,3-b]pyridin-4-yl]amino}phenyl)-1,1-cyclopropane dicarboxamide]: the IC50 in assay [2] fell in the range of 3.16 to 31.6 µM. With `O=C(NCCN1CCNCC1)c1cc2c(Oc3ccc(NC(=O)C4(C(=O)Nc5ccc(F)cc5)CC4)cc3)ccnc2[nH]1` [Example 3, N^1-(4-Fluorophenyl)-N^1-(4-{[2-({[2-(1-piperazinyl)ethyl]amino}carbonyl)-1H-pyrrolo[2,3-b]pyridin-4-yl]oxy}phenyl)-1,1-cyclopropane dicarboxamide], in assay [2], the IC50 lay in the range of 1 to 3.16 µM. With `CCOC(=O)c1cc2c(Nc3ccc(NC(=O)C4(C(=O)Nc5ccc(F)cc5)CC4)cc3)ccnc2[nH]1` [Example 17, Ethyl 4-[(4-{[(1-{[(4-fluorophenyl)amino]carbonyl}cyclopropyl)carbonyl]amino}phenyl)amino]-1H-pyrrolo[2,3-b]pyridine-2-carboxylate], the IC50 in assay [2] was 1 to 3.16 µM. Regarding `O=C(NCCO)c1cc2c(Oc3ccc(NC(=O)C4(C(=O)Nc5ccc(F)cc5)CC4)cc3)ccnc2[nH]1` [Example 7, N^1-(4-Fluorophenyl)-N^1-{4-[(2-{[(2-hydroxyethyl)amino]carbonyl}-1H-pyrrolo[2,3-b]pyridin-4-yl)oxy]phenyl}-1,1-cyclopropanedicarboxamide], in assay [1], the IC50 was < 10 nM. The compound `O=C(NCCN1CCOCC1)c1cc2c(Nc3ccc(NC(=O)C4(C(=O)Nc5ccc(F)cc5)CC4)cc3)ccnc2[nH]1` [Example 19, N^1-(4-Fluorophenyl)-N^1-(4-{[2-({[2-(4-morpholinyl)ethyl]amino}carbonyl)-1H-pyrrolo[2,3-b]pyridin-4-yl]amino}phenyl)-1,1-cyclopropane dicarboxamide] showed an IC50 in assay [2] of 1 to 3.16 µM. As to `O=C(NCCN1CCOCC1)c1cc2c(Oc3ccc(NC(=O)C4(C(=O)Nc5ccc(F)cc5)CC4)cc3)ccnc2[nH]1` [Example 4, N^1-(4-Fluorophenyl)-N^1-(4-{[2-({[2-(4-morpholinyl)ethyl]amino}carbonyl)-1H-pyrrolo[2,3-b]pyridin-4-yl]oxy}phenyl)-1,1-cyclopropane dicarboxamide], in assay [1], the IC50 was < 10 nM. For `CN(C)c1ccc(CNC(=O)c2cc3c(Oc4ccc(NC(=O)C5(C(=O)Nc6ccc(F)cc6)CC5)cc4)ccnc3[nH]2)cc1` [Example 11, N^1-[4-({2-[({[4-(Dimethylamino)phenyl]methyl}amino)carbonyl]-1H-pyrrolo[2,3-b]pyridin-4-yl}oxy)phenyl]-N^1-(4-fluorophenyl)-1,1-cyclopropane dicarboxamide], in assay [2], the IC50 was 1 to 3.16 µM.
